The values that follow come from ChEMBL document CHEMBL1201862, “PubChem BioAssay data set” (2004).

In data set [1] the test system is Streptococcus sp. 'group A'. In words: growth inhibition of control SK(-) GAS strain, dose response, counter-screen for streptokinase expression inhibitor project, luminescence, kanamycin, BacTiterGlo, confirmation (AID 1900). Format: functional, organism-based.
Data set [2] relates to HEK293. In words: cells. It is filed as functional, cell-based. As to conditions: Homo sapiens.
Data set [3] deals with T1, Streptokinase A (Streptococcus pyogenes serotype M1, UniProt P10520).
T1 sequence (P10520 whole entry): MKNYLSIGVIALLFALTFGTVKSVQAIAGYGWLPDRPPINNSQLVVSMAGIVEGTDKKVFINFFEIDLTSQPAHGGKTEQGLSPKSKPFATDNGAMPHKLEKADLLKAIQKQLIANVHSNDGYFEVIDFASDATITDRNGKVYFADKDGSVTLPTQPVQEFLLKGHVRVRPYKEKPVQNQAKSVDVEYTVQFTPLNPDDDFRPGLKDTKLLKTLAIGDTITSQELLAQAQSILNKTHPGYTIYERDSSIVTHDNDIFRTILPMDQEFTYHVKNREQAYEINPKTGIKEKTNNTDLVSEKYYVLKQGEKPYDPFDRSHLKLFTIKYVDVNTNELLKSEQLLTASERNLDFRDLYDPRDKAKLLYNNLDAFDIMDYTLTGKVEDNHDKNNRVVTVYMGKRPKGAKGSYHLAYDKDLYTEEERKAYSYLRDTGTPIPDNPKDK
In words: S. pyogenes streptokinase expression inhibitors, potency, dose response, plasminogen activation absorbance, OD405 (AID 1914).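 Further: secreted streptokinase activity via plasminogen activation per viability signal from cell pellet.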 Format: functional, Streptococcus pyogenes M1 GAS.

The subject of data set [4] is Streptococcus. In words: Group A Streptococcus viability loss, dose response, counter-screen for streptokinase expression inhibitor project, luminescence, BacTiterGlo (AID 1915).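 Further: potency for reduction of bacterial viability or growth.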 Format: functional, organism-based.
Data set [5] has as its system HEK293. In words: cells. It is filed as functional, cell-based. As to conditions: Homo sapiens. The source holds these as a separate data set.
Data set [6] deals with HEK293. In words: NOD2 signaling inhibitors in MDP-stimulated cells, cell-based, uHTS, luminescence (AID 2001). It is filed as functional. As to conditions: Homo sapiens.
Data set [7] has as its system HEK293. In words: NOD1 signaling inhibitors, primary screen, cell-based, luminescence, uHTS (AID 1578). Conditions: Homo sapiens. Format: functional.
A short description of data set [8]: cytotoxicity in HEK-293T cells, dose response, cytotoxicity control for TCR NF-kB inhibitor project, luminescence, T-cell screen hits (AID 489026).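 Further: cells exposed to compound about 14 hours before the viability readout.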 It is filed as functional, cell-based.
Data set [9] in a line: C. albicans growth with fluconazole, confirmation, fluorescence, retest (AID 2467). Format: functional, cell-based.
Data set [10] in a line: NIH-3T3 fibroblast cytotoxicity, dose response, cytotoxicity control, cell-based, fluorescence, Alamar Blue, secondary assay (AID 2327).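 Further: NIH-3T3 mouse fibroblasts cultured with fluconazole at 8 µg/mL.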 Format: functional. (Resazurin is reduced to fluorescent resorufin, in cell work by metabolically active cells.)
In data set [11] the target is Cytochrome P450 2C9 (Homo sapiens, UniProt P11712).
Data set [12] is described as follows: inhibitors of firefly luciferase expression or activity, dose response, H4 neuroglioma cells, luminescence (AID 1990). Format: functional, cell-based.
Data set [13] has as its target Cytochrome P450 2C19 (Homo sapiens, UniProt P33261). In words: Cytochrome panel assay with activity outcomes. Panel member name: p450-cyp2c19 Compounds with AC50 equal or less than 10 uM are considered active. It is filed as functional. Conditions: read-out: AC50.
Data set [14] in a line: inhibitors of SNCA 5'UTR-driven reporter translation, confirmation, H4 neuroglioma cells, luminescence (AID 1988). It is filed as functional, cell-based.
The nature of data set [15]: Luminescence Cell-Based Dose Response HTS to Identify Inhibitors of 5'UTR Stem-Loop Driven Prion Protein mRNA Translation in H4 Neuroglioblastoma Cells. [Related pubchem assays: 1827 (Project Summary), 1813 (Primary HTS)]. It is filed as functional.
In data set [16] the test system is Vero. In words: cells. Format: functional. As to conditions: Chlorocebus sabaeus.
Data set [17] is described as follows: growth suppression of PTEN-null colon cells, dose response, cell-based, HCT116 PTEN knockout (AID 1047).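 Further: HCT116 colon tumor cells with PTEN knocked out; cells exposed to compound for 60 hours before readout; potency for loss of cell viability measured by luminescence.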 It is filed as functional.
A short description of data set [18]: growth suppression of beta-catenin-knockout colon cells, dose response, cell-based, HCT116, human colon tumor (AID 1045).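 Further: HCT116 colon tumor cells with beta catenin knocked out; cells exposed to compound for 60 hours.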 It is filed as functional.
Data set [19] has as its target T2, Microphthalmia-associated transcription factor (Homo sapiens, UniProt O75030).
T2 sequence (O75030 whole entry): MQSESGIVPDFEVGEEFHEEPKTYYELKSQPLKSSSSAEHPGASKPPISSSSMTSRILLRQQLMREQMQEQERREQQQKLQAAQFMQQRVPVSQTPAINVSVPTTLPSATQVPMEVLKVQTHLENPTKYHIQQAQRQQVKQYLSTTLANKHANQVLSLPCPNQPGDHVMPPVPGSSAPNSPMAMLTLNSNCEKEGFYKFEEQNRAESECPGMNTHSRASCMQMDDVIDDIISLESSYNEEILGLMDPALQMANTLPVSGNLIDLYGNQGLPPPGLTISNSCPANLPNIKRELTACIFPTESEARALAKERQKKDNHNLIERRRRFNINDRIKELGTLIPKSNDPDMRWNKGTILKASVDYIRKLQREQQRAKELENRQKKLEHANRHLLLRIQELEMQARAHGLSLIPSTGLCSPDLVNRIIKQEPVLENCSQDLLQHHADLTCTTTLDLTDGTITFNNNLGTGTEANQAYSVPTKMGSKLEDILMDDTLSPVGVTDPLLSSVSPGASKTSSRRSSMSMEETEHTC
In words: TRPM1 promoter luciferase signal decrease, dose response, MITF inhibitor project, cell-based, SK-MEL-5, cherry-picked, set 3 (AID 493073).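 Further: SK-MEL-5 melanoma cells with luciferase driven by the MITF target TRPM1 promoter.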 It is filed as functional.

Data set [20] has as its target T3, Protein skinhead-1 (Caenorhabditis elegans, UniProt P34707).
T3 sequence (P34707 whole entry): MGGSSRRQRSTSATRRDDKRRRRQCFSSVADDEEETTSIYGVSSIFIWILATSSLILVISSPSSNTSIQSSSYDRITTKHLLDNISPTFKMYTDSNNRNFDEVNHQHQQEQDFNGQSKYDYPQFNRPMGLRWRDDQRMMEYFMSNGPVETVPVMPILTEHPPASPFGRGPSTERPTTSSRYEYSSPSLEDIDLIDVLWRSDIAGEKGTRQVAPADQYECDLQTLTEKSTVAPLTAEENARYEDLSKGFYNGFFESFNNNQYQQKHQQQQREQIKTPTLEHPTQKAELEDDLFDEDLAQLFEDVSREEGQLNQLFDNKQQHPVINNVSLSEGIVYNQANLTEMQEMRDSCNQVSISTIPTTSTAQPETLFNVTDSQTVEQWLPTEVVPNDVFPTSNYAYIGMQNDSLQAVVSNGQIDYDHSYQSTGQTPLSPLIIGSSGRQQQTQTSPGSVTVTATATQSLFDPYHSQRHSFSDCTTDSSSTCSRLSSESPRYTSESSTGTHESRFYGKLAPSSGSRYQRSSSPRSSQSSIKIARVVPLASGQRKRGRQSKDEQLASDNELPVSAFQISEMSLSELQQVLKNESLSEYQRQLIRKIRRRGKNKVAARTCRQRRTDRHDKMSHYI
Format: functional.

Calls of active or inactive are those of the source. Bounds are passed on as bounds.

Cytochrome P450 2C9, sequence (P11712 whole entry): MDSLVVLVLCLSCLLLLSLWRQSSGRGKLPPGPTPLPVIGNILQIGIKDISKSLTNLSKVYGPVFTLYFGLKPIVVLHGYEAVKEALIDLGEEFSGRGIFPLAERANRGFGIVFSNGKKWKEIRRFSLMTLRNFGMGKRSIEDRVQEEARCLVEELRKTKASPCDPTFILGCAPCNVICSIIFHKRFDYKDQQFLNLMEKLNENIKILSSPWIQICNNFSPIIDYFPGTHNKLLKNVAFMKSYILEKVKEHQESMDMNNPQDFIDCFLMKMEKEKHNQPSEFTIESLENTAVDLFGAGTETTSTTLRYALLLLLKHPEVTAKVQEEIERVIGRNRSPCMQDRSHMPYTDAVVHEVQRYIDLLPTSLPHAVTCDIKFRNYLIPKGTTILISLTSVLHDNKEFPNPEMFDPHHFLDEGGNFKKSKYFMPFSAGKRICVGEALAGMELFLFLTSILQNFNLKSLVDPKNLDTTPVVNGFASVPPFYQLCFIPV
Cytochrome P450 2C19, sequence (P33261 whole entry): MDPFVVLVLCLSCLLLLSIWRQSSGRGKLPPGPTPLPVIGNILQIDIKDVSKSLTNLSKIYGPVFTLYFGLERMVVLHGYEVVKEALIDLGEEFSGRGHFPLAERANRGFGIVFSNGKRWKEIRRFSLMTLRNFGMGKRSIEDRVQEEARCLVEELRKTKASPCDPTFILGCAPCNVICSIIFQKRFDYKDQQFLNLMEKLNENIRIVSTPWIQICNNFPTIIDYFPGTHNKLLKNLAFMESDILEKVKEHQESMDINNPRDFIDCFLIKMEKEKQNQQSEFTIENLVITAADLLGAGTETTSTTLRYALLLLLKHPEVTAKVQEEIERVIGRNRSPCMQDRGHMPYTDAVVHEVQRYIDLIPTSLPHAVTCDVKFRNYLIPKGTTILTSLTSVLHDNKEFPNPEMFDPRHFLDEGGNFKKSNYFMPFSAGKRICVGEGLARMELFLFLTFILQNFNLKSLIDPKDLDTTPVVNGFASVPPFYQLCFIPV

For orientation: EC50 means the concentration at which the effect is half-maximal. A word on the IC50: it is the concentration that inhibits the measured activity by half. As for `Cn1c(O)c(N=NC(S)=Nc2ccccc2F)c2cc(S(=O)(=O)N3CCOCC3)ccc21`, the EC50 in data set [1] was 7.47 µM (active); in data set [3], > 150 µM (not active); in data set [4] it was 44.2 µM (active); in [7] it was > 20 µM (inactive). For the same compound, the IC50 in [2] was 19.1 µM (active); in data set [5], > 20 µM (inactive); in [6] it was 9.77 µM (active).
For `CCOc1ccccc1C1CC(=O)Nc2cc3c(cc21)OCO3` (stereo not drawn), the IC50 in data set [8] was > 80 µM (inactive).
In the case of `Cc1ccc(C)c(SCC(=O)Nc2nnc(-c3ccccc3)o2)c1`, the EC50 in data set [9] is 2.1 µM (active); in data set [10], > 150 µM (inactive).
For the compound `COc1ccc([C@H]2CC(=O)C=C(c3c(OC)cccc3OC)C2)cc1`, in data set [8], the IC50 was > 80 µM (inactive).
By AC50 is commonly meant the concentration at which the activity in the assay is half-maximal. With `Cc1cccc(CNc2cc(-c3cccc(NS(C)(=O)=O)c3)ncn2)c1`, in data set [11], the AC50 entry was “inconclusive”.
In the case of `CC(=O)Nc1ccc(C#Cc2ccc(NC(C)=O)cc2)cc1`, the EC50 was 0.953 µM (active) in data set [1]; > 150 µM (not active) in data set [3]; 16.5 µM (active) in data set [12]; 9.38 µM (active) in data set [4]; 8.38 µM (active) in data set [14]; 10.5 µM (active) in data set [15]. For the same compound, the half-maximal activity concentration (AC50) is 0.00631 µM (inconclusive) in data set [13] and “inconclusive” in [11].
For `COc1cccc(OC)c1C1=NCC(=O)Nc2c1oc1ccc(Br)cc21`, the IC50 in [8] is 71.8 µM (inactive). The figures for the EC50 in data set [12], in data set [14] and in data set [15] were 0.752 µM (active), 0.267 µM (active) and 0.566 µM (active), respectively.
As usually defined, the CC50 is the concentration that lowers cell viability or growth by half. On to `O=C(CC1(O)C(=O)N(Cc2cccc3ccccc23)c2ccccc21)c1cccnc1` (stereo not drawn), for which, in data set [16], the CC50 is > 25 µM (active).
With `Cc1ccc(NS(=O)(=O)c2ccc(CCC(=O)NCCO)cc2)cc1`, the EC50 in data set [9] was > 38 µM (not active); in data set [10], > 150 µM (inactive).
Take `Cc1cccc(Nc2nnc(SCC(=O)NC(=O)Nc3ccc4c(c3)OCCO4)s2)c1`: the figures for the half-maximal effective concentration (EC50) in data set [17] and in data set [18] were 13 µM (active) and 9.93 µM (active), respectively. In addition, the CC50 in data set [16] was > 25 µM (active).
As to `CN(Cc1ccco1)c1cc(-c2cccc(C#N)c2)ncn1`, in data set [11], the AC50 entry is given as “inconclusive”.
Consider `O=c1c2ccccc2nc(-c2ccc(Cl)cc2Cl)n1O`, for which the EC50 was 2.06 µM (active) in data set [9] and > 160 µM (inactive) in data set [10].
For the compound `Cc1ccc(S(C)=NS(=O)(=O)c2ccc(C)cc2)cc1` (stereo not drawn), the AC50 was 7.08 µM (inconclusive) in data set [13] and “inconclusive” in data set [11].
Take `CCc1ccccc1NC(=O)c1ccc(-n2c(C)ccc2C)cc1`: in [11], the AC50 entry is given as “inconclusive”.
Regarding `O=C(NC1C2CC3CC(C2)CC1C3)c1ccc(N2CCNCC2)c([N+](=O)[O-])c1` (stereo not drawn), the CC50 in data set [16] is > 25 µM (active).
Consider `N=c1n(CC(=O)c2ccc([N+](=O)[O-])cc2)c2ccccc2n1Cc1ccccc1Cl`, for which the AC50 in data set [19] was 4.03 µM (active).
Take `Cc1ccc(C2CC(C(F)(F)F)n3nc(C(=O)NCc4c(C)nn(C)c4C)c(Cl)c3N2)cc1` (stereo not drawn): in data set [19], the AC50 was 8.89 µM (active). In addition, the IC50 in [20] is > 100 µM (inactive).
As to `O=C(NCc1ccccc1)C1c2ccccc2Oc2ccccc21`, the EC50 in data set [9] is 2.43 µM (active); in data set [10], > 150 µM (inconclusive).
In the case of `O=C(C=Cc1ccccn1)c1ccccc1`, the CC50 in data set [16] was 9.58 µM (active).
